The values that follow come from patent US11160885B2, “Phospholipid composition and microbubbles and emulsions formed using same” (Microvascuar Therapeutics LLC, priority 2014, dated 2021).

Series [1] in a line: Ionization of DPPA as a function of pH. The series is classed as physicochemical. An excerpt:
As those skilled in the art will appreciate, DPPA comprises two acidic protons. The pKa for the second acidic proton is about 7.9. FIG. 1 graphically depicts the ionization of DPPA as a function of pH. Curve 110 recites the percent of mono-anion 6 present, and curve 120 recites the percent of di-anion 7 present. At a pH of about 4 and higher, the combined percentages of mono-anion 6 and di-anion 7 total 100.
At a pH of about 7.9, DPPA comprises about 50 percent mono-anion 7 and about 50 percent di-anion 8. At a pH of about 7.0, DPPA comprises about 85 percent mono-anion 7 and about 15 percent di-anion 8.

For series [2] the following is noted: cited from earlier work.

Take `CCCCCCCCCCCCCCCC(=O)OC[C@H](COP(=O)(O)O)OC(=O)CCCCCCCCCCCCCCC` [DPPA, dipalmitoylphosphatidic acid]: the values for the percent di-anion result in series [1] (pH of about 7.0) and in series [1] (pH of about 7.9) were “about 15%” and “about 50%”, respectively. Moreover, the percent mono-anion entry is reported as “about 85%” in series [1] (pH of about 7.0) and “about 50%” in series [1] (pH of about 7.9). In series [2], the “pKa for the second acidic proton” value is reported as “about 7.9”.
